Results reported in the supplement of paper PMC10307832.

Legend:
Experiment in all cases: relative viability (nuclei count vs DMSO), 5 days (fraction); higher = more cells survive
[1] = compound: CN(C)C(=N)NC(=N)N [Metformin] + CC(C)C[C@H](NC(=O)[C@H](Cc1ccccc1)NC(=O)c1cnccn1)B(O)O [Bortezomib] (partner 0.002 µM)
In short: (§1)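 After 5 days of treatment, lung cancer cells in 1536-well plates were fixed and stained in a single step (final 0.05% Triton X-100, 1% formaldehyde, 1 ug/ml Hoechst) and their nuclei counted on 4× images. Treatment had been applied by pin tool the day after seeding as one drug alone or as a fixed anchor-drug dose with five library-drug doses (not always all listed) in √10 steps. Relative viability is the nuclei count of treated wells divided by that of vehicle wells, and values are medians of duplicate plates.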

[2] = compound: CN(C)C(=N)NC(=N)N [Metformin] + COc1cccc2cc(-c3nc([C@H]4CC[C@H](C(=O)O)CC4)n4ncnc(N)c34)[nH]c12 [OSI-027] (partner 0.5 µM)
In short: as §1

[3] = compound: N#CC1(c2ccc(NC(=O)c3cccnc3NCc3ccncc3)cc2)CCCC1 [Apatinib] + CC(C)C[C@H](NC(=O)[C@H](Cc1ccccc1)NC(=O)c1cnccn1)B(O)O [Bortezomib] (partner 0.002 µM)
In short: as §1

[4] = compound: CN(C)C(=N)NC(=N)N [Metformin] + NC(=O)Nc1cc(-c2cccc(F)c2)sc1C(=O)N[C@H]1CCCNC1 [AZD7762] (partner 0.2 µM)
In short: as §1

## NCI-H460
[1]; first compound 31.62 µM
  relative viability: 1.12
[1]; first compound 100 µM
  relative viability: 1.11
[1]; first compound 316.23 µM
  relative viability: 1.06
[1]; first compound 1000 µM
  relative viability: 1.19
[2]; first compound 10 µM
  relative viability: 0.685
[2]; first compound 31.62 µM
  relative viability: 0.664
[2]; first compound 100 µM
  relative viability: 0.547
[2]; first compound 316.23 µM
  relative viability: 0.49
[2]; first compound 1000 µM
  relative viability: 0.762
[3]; first compound 0.08 µM
  relative viability: 1.11
[3]; first compound 0.253 µM
  relative viability: 1.03
[3]; first compound 0.8 µM
  relative viability: 0.888
[3]; first compound 2.53 µM
  relative viability: 0.98
[3]; first compound 8 µM
  relative viability: 1.01
[4]; first compound 31.62 µM
  relative viability: 0.632
[4]; first compound 100 µM
  relative viability: 0.676
[4]; first compound 316.23 µM
  relative viability: 0.433
[4]; first compound 1000 µM
  relative viability: 0.553
